Test system: male C57BL/6J mice
Assay: Acute single dose 120-min time-course experiment, in vivo glucose reduction
Set-up: unit not given here
Details: n = 8, Mean ± SEM
Protocol: Acute single dose 120-min time-course experiments were carried out in male C57BL/6J or db/db mice, age 8-12 weeks, bred in-house. The animals were housed in groups of 6 animals per cage, for a week, in order to habituate them to vivarium conditions (25+4° C., 60-65% relative humidity, 12:12 h light: dark cycle, with lights on at 7.30 am). All the animal experiments were carried out according to the internationally valid guidelines following approval by the ‘Zydus Research Center animal ethical committee’.
[…] On the day of experiment, food was withdrawn from all the cages, water was given ad-libitum and were kept for overnight fasting. Vehicle (normal saline)/test/standard compounds were administered intraperitoneally (i.p.) or orally, on a body weight basis. Soon after the 0 min. blood collection from each animal, the subsequent blood collections were done at 30, 60 and 120 or upto 240 min., via retro-orbital route, under light ether anesthesia (Chen, D., et al., Diabetes Obesity Metabolism, 2005, 7, 307. Kim, J. G. et al., Diabetes, 2003, 52, 751).
The blood samples were centrifuged and the separated serum was immediately subjected for the glucose estimation. The serum for insulin estimation was stored at −70° C. until used for the insulin estimation. The glucose estimation was carried out with DPEC-GOD/POD method (Ranbaxy Fine Chemicals Limited, Diagnostic division, India), using Spectramax-190, in 96-microwell plate reader (Molecular devices Corporation, Sunnyvale, Calif.). […] The AUC and BCAUC obtained from graphs were analyzed for one way ANOVA, followed by Dunnett's post test, using Graph Pad prism software. Furthermore, the insulin estimation was carried out using rat/mouse insulin ELISA kit (Linco research, Missouri USA).

CCc1cc(OC)ccc1-c1ccc(CC(C)(NC(=O)C(C)(CC(=O)O)NC(=O)[C@H](CO)NC(=O)[C@@H](NC(=O)[C@H](Cc2ccccc2)NC(=O)[C@@H](NC(=O)CNC(=O)[C@H](CCC(N)=O)NC(=O)C(C)(C)NC(=O)[C@H](Cc2c[nH]cn2)NC(=O)[C@@H](N)C(C)C)[C@@H](C)O)[C@@H](C)O)C(=O)NC(CCCc2ccccc2)C(N)=O)cc1 (single isomer, unassigned) [Seq. ID. No. 59, VH-Aib-QGTFTS-(αMe-Asp)-(αMe-Bip(OMe))-(APPA)]
blood glucose level (in vivo glucose reduction) (2 μM/kg, oral, 0 min): 184 ± 2.5
blood glucose level (in vivo glucose reduction) (2 μM/kg, oral, 30 min): 115 ± 3.6
blood glucose level (in vivo glucose reduction) (2 μM/kg, oral, 60 min): 113 ± 4.2
blood glucose level (in vivo glucose reduction) (2 μM/kg, oral, 120 min): 110 ± 2.4

CCc1cc(OC)ccc1-c1ccc(CC(C)(NC(=O)C(C)(CC(=O)O)NC(=O)[C@H](CO)NC(=O)[C@@H](NC(=O)[C@H](Cc2ccccc2)NC(=O)[C@@H](NC(=O)CNC(=O)[C@H](CCC(=O)O)NC(=O)C2(C)CCCN2C(=O)[C@H](Cc2c[nH]cn2)NC(=O)[C@@H](N)C(C)C)[C@@H](C)O)[C@@H](C)O)C(=O)NC(CCCc2ccccc2)C(N)=O)cc1 (single isomer, unassigned) [Seq. ID. No. 64, VH-(αMe-Pro)-EGTFTS-(αMe-Asp)-(αMe-Bip(OMe))-(APPA)]
blood glucose level (in vivo glucose reduction) (2 μM/kg, oral, 0 min): 183 ± 2.4
blood glucose level (in vivo glucose reduction) (2 μM/kg, oral, 30 min): 116 ± 3.1
blood glucose level (in vivo glucose reduction) (2 μM/kg, oral, 60 min): 112 ± 4.8
blood glucose level (in vivo glucose reduction) (2 μM/kg, oral, 120 min): 110 ± 2.5

CCc1cc(OC)ccc1-c1ccc(CC(C)(NC(=O)C(C)(CC(=O)O)NC(=O)[C@H](CO)NC(=O)[C@@H](NC(=O)C(C)(Cc2c(F)cccc2F)NC(=O)[C@@H](NC(=O)CNC(=O)[C@H](CCC(N)=O)NC(=O)C2(C)CCCN2C(=O)[C@H](Cc2c[nH]cn2)NC(=O)[C@@H](N)C(C)C)[C@@H](C)O)[C@@H](C)O)C(=O)NC(CCCc2ccccc2)C(N)=O)cc1 (single isomer, unassigned) [Seq. ID. No. 76, VH-(αMe-Pro)-QGT-(αMe-2,6-diFPhe)-TS-(αMe-Asp)-(αMe-Bip(OMe))-(APPA)]
blood glucose level (in vivo glucose reduction) (2 μM/kg, oral, 0 min): 183 ± 2.4
blood glucose level (in vivo glucose reduction) (2 μM/kg, oral, 30 min): 116 ± 3.1
blood glucose level (in vivo glucose reduction) (2 μM/kg, oral, 60 min): 112 ± 4.8
blood glucose level (in vivo glucose reduction) (2 μM/kg, oral, 120 min): 110 ± 2.5

CCc1cc(OC)ccc1-c1ccc(CC(NC(=O)[C@H](CC(=O)O)NC(=O)[C@H](CO)NC(=O)[C@@H](NC(=O)C(C)(Cc2c(F)cccc2F)NC(=O)[C@@H](NC(=O)CNC(=O)[C@H](CCC(N)=O)NC(=O)[C@H](CO)NC(=O)[C@H](Cc2c[nH]cn2)NC(=O)[C@@H](N)C(C)C)[C@@H](C)O)[C@@H](C)O)C(=O)NC(C)(CCCc2ccccc2)C(N)=O)cc1 (single isomer, unassigned) [Seq. ID. No. 99, VHSQGT-(αMe-2,6-diF-Phe)-TSD-Bip(OMe)-(αMe-APPA)]
blood glucose level (in vivo glucose reduction) (2 μM/kg, oral, 0 min): 184 ± 2.5
blood glucose level (in vivo glucose reduction) (2 μM/kg, oral, 30 min): 118 ± 3.6
blood glucose level (in vivo glucose reduction) (2 μM/kg, oral, 60 min): 113 ± 4.2
blood glucose level (in vivo glucose reduction) (2 μM/kg, oral, 120 min): 110 ± 2.4

CCc1cc(OC)ccc1-c1ccc(CC(NC(=O)[C@H](CC(=O)O)NC(=O)[C@H](CO)NC(=O)[C@@H](NC(=O)C(C)(Cc2c(F)cccc2F)NC(=O)[C@@H](NC(=O)CNC(=O)[C@H](CCC(=O)O)NC(=O)C(C)(C)NC(=O)[C@H](Cc2c[nH]cn2)NC(=O)[C@@H](N)C(C)C)[C@@H](C)O)[C@@H](C)O)C(=O)NC(C)(CCCc2ccccc2)C(N)=O)cc1 (single isomer, unassigned) [Seq. ID. No. 105, VH-Aib-EGT-(αMe-2,6-diFPhe)-TSD-Bip(OMe)-(αMe-APPA)]
blood glucose level (in vivo glucose reduction) (2 μM/kg, oral, 0 min): 185 ± 2.1
blood glucose level (in vivo glucose reduction) (2 μM/kg, oral, 30 min): 115 ± 2.8
blood glucose level (in vivo glucose reduction) (2 μM/kg, oral, 60 min): 112 ± 4.9
blood glucose level (in vivo glucose reduction) (2 μM/kg, oral, 120 min): 111 ± 2.2

CCc1cc(OC)ccc1-c1ccc(CC(NC(=O)C(C)(CC(=O)O)NC(=O)C(C)(CO)NC(=O)[C@@H](NC(=O)C(C)(Cc2ccccc2F)NC(=O)[C@@H](NC(=O)CNC(=O)[C@H](CCC(N)=O)NC(=O)C2(C)CCCN2C(=O)[C@H](Cc2c[nH]cn2)NC(=O)[C@@H](N)C(C)C)[C@@H](C)O)[C@@H](C)O)C(=O)NC(C)(CCCc2ccccc2)C(N)=O)cc1 (single isomer, unassigned) [Seq. ID. No. 118, VH-(αMe-Pro)-QGT-(αMe-2FPhe)-T-(αMe-Ser)-(αMe-Asp)-Bip(OMe)-(αMe-APPA)]
blood glucose level (in vivo glucose reduction) (2 μM/kg, oral, 0 min): 184 ± 2.5
blood glucose level (in vivo glucose reduction) (2 μM/kg, oral, 30 min): 115 ± 1.6
blood glucose level (in vivo glucose reduction) (2 μM/kg, oral, 60 min): 113 ± 3.2
blood glucose level (in vivo glucose reduction) (2 μM/kg, oral, 120 min): 110 ± 2.4

CCc1cc(OC)ccc1-c1ccc(CC(NC(=O)C(C)(CC(=O)O)NC(=O)C(C)(CO)NC(=O)[C@@H](NC(=O)C(C)(Cc2c(F)cccc2F)NC(=O)[C@@H](NC(=O)CNC(=O)[C@H](CCC(=O)O)NC(=O)C(C)(C)NC(=O)[C@H](Cc2c[nH]cn2)NC(=O)[C@@H](N)C(C)C)[C@@H](C)O)[C@@H](C)O)C(=O)NC(C)(CCCc2ccccc2)C(N)=O)cc1 (single isomer, unassigned) [Seq. ID. No. 129, VH-Aib-EGT-(αMe-2,6-diFPhe)-T-(αMe-Ser)-(αMe-Asp)-Bip(OMe)-(αMe-APPA)]
blood glucose level (in vivo glucose reduction) (2 μM/kg, oral, 0 min): 183 ± 2.4
blood glucose level (in vivo glucose reduction) (2 μM/kg, oral, 30 min): 116 ± 3.1
blood glucose level (in vivo glucose reduction) (2 μM/kg, oral, 60 min): 112 ± 4.8
blood glucose level (in vivo glucose reduction) (2 μM/kg, oral, 120 min): 110 ± 2.5

CCc1cc(OC)ccc1-c1ccc(CC(C)(NC(=O)[C@H](CC(=O)O)NC(=O)[C@H](CO)NC(=O)[C@@H](NC(=O)C(C)(Cc2ccccc2F)NC(=O)[C@@H](NC(=O)CNC(=O)[C@H](CCC(=O)O)NC(=O)[C@H](CO)NC(=O)[C@H](Cc2c[nH]cn2)NC(=O)[C@@H](N)C(C)C)[C@@H](C)O)[C@@H](C)O)C(=O)NC(C)(CCCc2ccccc2)C(N)=O)cc1 (single isomer, unassigned) [Seq. ID. No. 145, VHSEGT-(αMe-2FPhe)-TSD-(αMe-Bip(OMe))-(αMe-APPA)]
blood glucose level (in vivo glucose reduction) (2 μM/kg, oral, 0 min): 184 ± 2.2
blood glucose level (in vivo glucose reduction) (2 μM/kg, oral, 30 min): 118 ± 3.3
blood glucose level (in vivo glucose reduction) (2 μM/kg, oral, 60 min): 112 ± 4.4
blood glucose level (in vivo glucose reduction) (2 μM/kg, oral, 120 min): 110 ± 2.9

CCc1cc(OC)ccc1-c1ccc(CC(C)(NC(=O)[C@H](CC(=O)O)NC(=O)C(C)(CO)NC(=O)[C@@H](NC(=O)C(C)(Cc2ccccc2F)NC(=O)[C@@H](NC(=O)CNC(=O)[C@H](CCC(N)=O)NC(=O)[C@H](C)NC(=O)[C@H](Cc2c[nH]cn2)NC(=O)[C@@H](N)C(C)C)[C@@H](C)O)[C@@H](C)O)C(=O)NC(C)(CCCc2ccccc2)C(N)=O)cc1 (single isomer, unassigned) [Seq. ID. No. 166, VHAQGT-(αMe-2FPhe)-T-(αMe-Ser)-D-(αMe-Bip(OMe))-(αMe-APPA)]
blood glucose level (in vivo glucose reduction) (0.5 μM/kg, oral, 0 min): 184 ± 2.5
blood glucose level (in vivo glucose reduction) (0.5 μM/kg, oral, 30 min): 115 ± 3.6
blood glucose level (in vivo glucose reduction) (0.5 μM/kg, oral, 60 min): 113 ± 4.2
blood glucose level (in vivo glucose reduction) (0.5 μM/kg, oral, 120 min): 110 ± 2.4

CCc1cc(OC)ccc1-c1ccc(CC(C)(NC(=O)[C@H](CC(=O)O)NC(=O)C(C)(CO)NC(=O)[C@@H](NC(=O)C(C)(Cc2c(F)cccc2F)NC(=O)[C@@H](NC(=O)CNC(=O)[C@H](CCC(=O)O)NC(=O)[C@H](CO)NC(=O)[C@H](Cc2c[nH]cn2)NC(=O)[C@@H](N)C(C)C)[C@@H](C)O)[C@@H](C)O)C(=O)NC(C)(CCCc2ccccc2)C(N)=O)cc1 (single isomer, unassigned) [Seq. ID. No. 177, VHSEGT-(αMe-2,6-diFPhe)-T-(αMe-Ser)-D-(αMe-Bip(OMe))-(αMe-APPA)]
blood glucose level (in vivo glucose reduction) (2 μM/kg, oral, 0 min): 183 ± 2.4
blood glucose level (in vivo glucose reduction) (2 μM/kg, oral, 30 min): 116 ± 3.1
blood glucose level (in vivo glucose reduction) (2 μM/kg, oral, 60 min): 112 ± 4.8
blood glucose level (in vivo glucose reduction) (2 μM/kg, oral, 120 min): 110 ± 2.5

CCc1cc(OC)ccc1-c1ccc(CC(C)(NC(=O)[C@H](CC(=O)O)NC(=O)C(C)(CO)NC(=O)[C@@H](NC(=O)C(C)(Cc2c(F)cccc2F)NC(=O)[C@@H](NC(=O)CNC(=O)[C@H](CCC(=O)O)NC(=O)C(C)(C)NC(=O)[C@H](Cc2c[nH]cn2)NC(=O)[C@@H](N)C(C)C)[C@@H](C)O)[C@@H](C)O)C(=O)NC(C)(CCCc2ccccc2)C(N)=O)cc1 (single isomer, unassigned) [Seq. ID. No. 179, VH-Aib-EGT-(αMe-2,6-diFPhe)-T-(αMe-Ser)-D-(αMe-Bip(OMe))-(αMe-APPA)]
blood glucose level (in vivo glucose reduction) (20 nM/kg, i.p, 0 min): 182 ± 2.1
blood glucose level (in vivo glucose reduction) (20 nM/kg, i.p, 30 min): 121 ± 2.9
blood glucose level (in vivo glucose reduction) (20 nM/kg, i.p, 60 min): 130 ± 3.1
blood glucose level (in vivo glucose reduction) (20 nM/kg, i.p, 120 min): 138 ± 2.4

— patent US20120264685A1 (priority 2009, published 2012)
